Experimental data published in US10544112B2, “Identification of ebsulfur analogues with broad-spectrum antifungal activity” (priority 2017, dated 2020).
Values after ≈ are worked out from the molar mass of the structure shown.

Assays:
[1] = system: Aspergillus strains (K-M); experiment: Antifungal MIC, summary over Aspergillus strains; assay type: cell-based; details: spores
Procedure: Fungal MIC determination experiments were performed using untreated 96-well plates (Corning). Cells were counted either by using a hemocytometer (Hausser Scientific, Horsham, Pa., USA) or by measuring optical density at attenuance of 600 nm (OD600) by using a Genesys 20 spectrophotometer (Thermo Scientific, Waltham, Mass., USA). Spectrophotometric and colorimetric measurements in 96-well plates were performed using a SpectraMax M5 spectrometer (Molecular Devices, Sunnyvale, Calif., USA).
Yeast strains Candida albicans ATCC 10231 (strain A), C. albicans ATCC 64124 (strain B), and C. albicans ATCC MYA-2876(S) (strain C) were kindly provided by Dr. Jon Y. Takemoto (Utah State University, Logan, UT, USA). C. albicans ATCC MYA-90819(R) (strain D), C. albicans ATCC MYA-2310(S) (strain E), C. albicans ATCC 1237(R) (strain F), C. albicans ATCC MYA-1003(R) (strain G), Candida glabrata ATCC 2001 (strain H), Candida krusei ATCC 6258 (strain I), and Candida parapsilosis ATCC 22019 (strain J) were obtained from the American Type Culture Collection (ATCC, Manassas, Va., USA). […]
The MIC values against fungal strains were determined based on a previously published protocol. MIC values for ebsulfur (2a) analogues against fungal cells were evaluated in 96-well plates as described in the CLSI document M27-A3 with minor modifications. […]

[2] = system: C. albicans ATCC MYA-2310(S) (strain E); experiment: Antifungal MIC determination (CLSI M27-A3, 96-well); assay type: cell-based, Candida albicans
Outline: (§1)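 Yeasts were precultured in potato dextrose broth, then diluted in RPMI 1640 (pH 7.0, 0.165 M MOPS) to a final 5×10^3 CFU/mL. Compounds were serially diluted two-fold to 12.5-0.02 μg/mL. Plates were incubated 48 h at 35° C.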

[3] = system: C. albicans ATCC MYA-2876(S) (strain C); experiment: as above; assay type: cell-based, Candida albicans
Outline: as §1

[4] = system: Aspergillus terreus ATCC MYA-3633 (strain M); experiment: Antifungal MIC determination, filamentous fungi spores; assay type: cell-based
Outline: (§2)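 CLSI M27-A3 microdilution, modified; RPMI 1640/0.165 M MOPS pH 7.0; final drug 12.5-0.02 μg/mL (2-fold series), inoculum 5×10^3 CFU/mL; 48 h, 35° C. Aspergillus: spores from 3-5 day PDA cultures at 25° C, tested likewise.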

[5] = system: Aspergillus flavus ATCC MYA-3631 (strain K); experiment: as above; assay type: cell-based; details: all compounds
Outline: as §2

[6] = system: Aspergillus nidulans ATCC 38163 (strain L); experiment: as above; assay type: cell-based
Outline: as §2

[7] = system: Candida krusei ATCC 6258 (strain I); experiment: Antifungal MIC determination (CLSI M27-A3, 96-well); assay type: cell-based
Outline: as §1

[8] = system: Candida parapsilosis ATCC 22019 (strain J); experiment: as above; assay type: cell-based
Outline: as §1

[9] = system: Candida albicans ATCC 10231 (strain A); experiment: as above; assay type: cell-based
Outline: as §1

[10] = system: Candida glabrata ATCC 2001 (strain H); experiment: as above; assay type: cell-based
Outline: as §1

[11] = system: C. albicans ATCC 64124 (strain B); experiment: microbe, parasite or virus in culture; assay type: cell-based, Candida albicans
Outline: as §1

[12] = system: C. albicans ATCC MYA-1003(R) (strain G); experiment: microbe, parasite or virus in culture; assay type: cell-based, Candida albicans
Outline: as §1

[13] = system: C. albicans ATCC 90819(R) (strain D); experiment: microbe, parasite or virus in culture; assay type: cell-based, Candida albicans
Outline: as §1

[14] = system: C. albicans ATCC MYA-1237(R) (strain F); experiment: microbe, parasite or virus in culture; assay type: cell-based, Candida albicans
Outline: as §1

[15] = Solubility in the RPMI 1640 medium used for MIC determination; details: medium of MIC determination
[16] = system: C. albicans ATCC 10231 (strain A); experiment: ROS production assay (DCFH-DA); assay type: cell-based, Candida albicans; details: 1× and 2× MIC (H2O2 1 mM), 1-h treatment
Procedure: ROS production assay was performed as previously described with minor modifications. […] Once entering the cells, the DCFH-DA probe is first hydrolyzed to the non-fluorescent 2′,7′-dichlorodihydrofluorescein (DCFH) by cellular esterases. […] A colony of C. albicans ATCC 10231 (strain A) was used to inoculate 5 mL of PDB in a Falcon tube and grown overnight at 35° C. at 200 rpm.
Thus, whether the compounds of the invention would also induce ROS against C. albicans was studied. […] 2′,7′-dichlorodihydrofluorescin diacetate (DCFH-DA) was then used to detect and visualize ROS production (FIG. 5). As a positive control, cells were treated with H2O2, which is an inducer of hydroxyl radical formation.

[17] = Candida albicans, read-out: MIC-2

In the case of `O=c1c2ccccc2sn1C1CCCCCCC1` [Compound 3n], the “MIC against Aspergillus strains K-M, range” value [1] is reported as no more than 0.02 to 0.05 µg/mL, the MIC-0 ([2]; strain E, compounds 1-4n and AmB, 48 h, RPMI 1640) is reported as 6.25 µg/mL (≈ 23.9 µM) and the MIC-0 ([3]; strain C, compounds 1-4n and AmB, 48 h, RPMI 1640) is reported as 6.25 µg/mL (≈ 23.9 µM). For the same molecule, the MIC-0 ([4]; strain M, all compounds, spores) was no more than 0.02 µg/mL, the MIC-0 [5] was no more than 0.02 µg/mL and the MIC-0 ([6]; strain L, spores) was 0.05 µg/mL (≈ 0.191 µM). For the same molecule, the MIC-0 ([7]; strain I, compounds 1-4n and AmB, 48 h, RPMI 1640) was 0.39 µg/mL (≈ 1.49 µM), the MIC-0 ([8]; strain J, compounds 1-4n and AmB, 48 h, RPMI 1640) was 3.13 µg/mL (≈ 12 µM) and the MIC-0 ([9]; strain A, compounds 1-4n and AmB, 48 h, RPMI 1640) was 3.13 µg/mL (≈ 12 µM). It also gave an MIC-0 ([10]; strain H, compounds 1-4n and AmB, 48 h, RPMI 1640) of 3.13 µg/mL (≈ 12 µM), an MIC-0 ([11]; strain B, compounds 1-4n and AmB, 48 h, RPMI 1640) of 3.13 µg/mL (≈ 12 µM) and an MIC-0 ([12]; strain G, compounds 1-4n and AmB, 48 h, RPMI 1640) of 6.25 µg/mL (≈ 23.9 µM). The MIC-0 ([13]; strain D, compounds 1-4n and AmB, 48 h, RPMI 1640) was 6.25 µg/mL (≈ 23.9 µM) and the MIC-0 ([14]; strain F, compounds 1-4n and AmB, 48 h, RPMI 1640) was 6.25 µg/mL (≈ 23.9 µM).

For `O=c1c2ccccc2sn1C12CC3CC(CC(C3)C1)C2` [Compound 3o], the “solubility in the RPMI 1640 medium” value [15] was “not soluble”.

In the case of `OO` [Compound H2O2, H2O2, reference compound], the “ROS induction (DCFH-DA fluorescence)” value [16] is reported as “highly fluorescent”.

In the case of `C[C@@H](c1ncncc1F)[C@](O)(Cn1cncn1)c1ccc(F)cc1F` [VOR, voriconazole, reference compound], the “MIC against Aspergillus strains K-M, range” value [1] is reported as 0.03 to 0.24 µg/mL, the MIC [2, 17] is reported as 1.95 µg/mL (≈ 5.58 µM) and the MIC [3, 17] is reported as 0.975 µg/mL (≈ 2.79 µM). For the same molecule, the MIC ([4]; Aspergillus terreus, read-out: MIC-0) was 0.12 µg/mL (≈ 0.344 µM), the MIC ([6]; Aspergillus nidulans, ATCC38163, read-out: MIC-0) was 0.03 µg/mL (≈ 0.0859 µM) and the MIC ([7]; Pichia kudriavzevii, ATCC6258, read-out: MIC-2) was 0.12 µg/mL (≈ 0.344 µM). For the same molecule, the MIC ([8]; Lodderomyces parapsilosis, ATCC22019, read-out: MIC-2) was less than 0.03 µg/mL, the MIC ([9]; Candida albicans, ATCC10231, read-out: MIC-2) was 7.8 µg/mL (≈ 22.3 µM) and the MIC ([10]; Nakaseomyces glabratus, ATCC2001, read-out: MIC-2) was 0.06 µg/mL (≈ 0.172 µM). For the same molecule, the MIC ([11]; Candida albicans, ATCC64124, read-out: MIC-2) was greater than 31.2 µg/mL, the MIC [12, 17] was 7.8 µg/mL (≈ 22.3 µM) and the MIC ([13]; Candida albicans, ATCC90819, read-out: MIC-2) was 1.95 µg/mL (≈ 5.58 µM). The MIC [14, 17] was 0.975 µg/mL (≈ 2.79 µM).
